PubChem BioAssay (NCI)
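Cells were grown in 96-well plates and exposed to each compound for 48 hours at five concentrations; endpoints were interpolated linearly between bracketing concentrations, or set to the highest concentration if not reached. Definition used: TGI = concentration required for complete inhibition of growth.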

How the values were obtained:
Assay in all cases: DTP human tumour cell line panel, 48 h
KM12 colon = system: KM12 colon
SNB-78 CNS = system: SNB-78 CNS
OVCAR-4 ovarian = system: OVCAR-4 ovarian
NCI-H522 lung = system: NCI-H522 lung
NCI-H226 lung = system: NCI-H226 lung
A549 NSCLC = system: A549 NSCLC
CAKI-1 renal = system: CAKI-1 renal
CCRF-CEM leukemia = system: CCRF-CEM leukemia
SNB-75 CNS = system: SNB-75 CNS
SK-MEL-2 melanoma = system: SK-MEL-2 melanoma
UACC-62 melanoma = system: UACC-62 melanoma
786-0 renal = system: 786-0 renal
ACHN renal = system: ACHN renal
NCI-H460 lung = system: NCI-H460 lung
MDA-MB-231 breast = system: MDA-MB-231 breast
BT-549 breast = system: BT-549 breast
NCI/ADR-RES ovarian = system: NCI/ADR-RES ovarian

Compound	TGI (KM12 colon)	TGI (SNB-78 CNS)	TGI (OVCAR-4 ovarian)	TGI (NCI-H522 lung)	TGI (NCI-H226 lung)	TGI (A549 NSCLC)	TGI (CAKI-1 renal)	TGI (CCRF-CEM leukemia)	TGI (SNB-75 CNS)	TGI (SK-MEL-2 melanoma)	TGI (UACC-62 melanoma)	TGI (786-0 renal)	TGI (ACHN renal)	TGI (NCI-H460 lung)	TGI (MDA-MB-231 breast)	TGI (BT-549 breast)	TGI (NCI/ADR-RES ovarian)
N#CCCN(c1ccc(C=Nc2cccc([N+](=O)[O-])c2)cc1)S(=O)(=O)c1ccccc1	> 100 µM	> 100 µM	> 100 µM	> 100 µM	> 100 µM	> 100 µM	> 100 µM	> 100 µM	> 100 µM	> 100 µM	> 100 µM	> 100 µM					
CCOC(=O)C(OCC1CC=CCC1)Sc1ccccc1 (stereo unspecified)	> 100 µM	> 100 µM		> 100 µM		> 100 µM	> 100 µM	> 100 µM	> 100 µM	> 100 µM	> 100 µM	> 100 µM	> 100 µM	> 100 µM			
O=C1O[C@@H](c2ccccc2)C[C@@H]1CN1CCOCC1	> 100 µM	> 100 µM	> 100 µM	> 100 µM	> 100 µM	> 100 µM	> 100 µM	> 100 µM	> 100 µM	> 100 µM	> 100 µM	> 100 µM	> 100 µM	> 100 µM			
CC(C)C(Sc1nc(-c2ccccc2)c(-c2ccccc2)[nH]1)C(=O)NNC(=S)Nc1ccccc1 (stereo unspecified)	28.9 µM	79.6 µM	79.2 µM	21.5 µM	37.2 µM	60.9 µM		38 µM	53.6 µM	36.6 µM	12.4 µM	35.8 µM	87 µM	33.9 µM			
COC1O[C@H]2CCN(C(=O)OCc3ccccc3)[C@H]2[C@H]1OCc1ccccc1 (stereo partly specified)	> 100 µM	> 100 µM	> 100 µM	> 100 µM	> 100 µM	> 100 µM	> 100 µM	> 100 µM	> 100 µM	> 100 µM	64.4 µM	> 100 µM	> 100 µM	> 100 µM			
Cc1cc(=O)cc2sc3c(C)cccc3nc1-2	48.2 µM	> 100 µM	30 µM	> 100 µM		> 100 µM	83 µM	59.4 µM	> 100 µM	43.9 µM		32.2 µM	> 100 µM	57.6 µM			
Cc1c(Cl)cccc1NC(=O)C(=O)C1C(=O)CC(C)(C)CC1=O	> 100 µM	> 100 µM	> 100 µM	> 100 µM	> 100 µM	> 100 µM	> 100 µM	> 100 µM	> 100 µM	> 100 µM	> 100 µM	> 100 µM	> 100 µM	> 100 µM			
Cc1ccc(S(=O)(=O)N2CCN3C(=O)c4ccccc4C32c2ccc(F)cc2)cc1 (stereo unspecified)	> 100 µM		> 100 µM	> 100 µM	> 100 µM	> 100 µM	> 100 µM	80 µM	> 100 µM	> 100 µM	> 100 µM	> 100 µM	> 100 µM	> 100 µM	> 100 µM	> 100 µM	> 100 µM
CCSc1nnc(CSc2nc(-c3ccccc3)c(-c3ccccc3)[nH]2)n1-c1ccccc1	32.1 µM	> 100 µM		30.5 µM	27.7 µM	80.9 µM	63.7 µM	49.4 µM	42.9 µM	45.6 µM	30.2 µM	45.7 µM	33.4 µM	36.9 µM			
CC[C@@H]1CC[C@@H]2[C@H](CC[C@]3(C)[C@@H](O)CC[C@@H]23)[C@H]1C(=O)O	> 100 µM		> 100 µM	> 100 µM	> 100 µM	> 100 µM	> 100 µM	> 100 µM	> 100 µM	> 100 µM	> 100 µM	> 100 µM	> 100 µM	> 100 µM	> 100 µM	> 100 µM	> 100 µM
C[N+](C)(C)CC(=O)N/N=c1\cc(C(=O)Nc2ccc(N=O)cc2C#N)oc2cc(O)ccc12	> 100 µM	> 100 µM	> 100 µM	> 100 µM	> 100 µM	> 100 µM	> 100 µM	> 100 µM	> 100 µM	> 100 µM	> 100 µM	> 100 µM	> 100 µM	> 100 µM			
C=CC(=O)c1ccc2c(c1)OCCOCCOCCOCCOCCO2	> 100 µM	35.2 µM	36.3 µM	24.7 µM	> 100 µM	> 100 µM	68 µM	> 100 µM	> 91.6 µM	> 79.7 µM	92 µM	31.1 µM	31.9 µM	> 100 µM	36 µM	37.2 µM	54 µM
CCOC(=O)C1=C(C)N(c2ccccc2)C2=C(C(=O)N(c3ccccc3)C2c2ccccc2)C1c1ccccc1 (stereo unspecified)	> 100 µM	> 100 µM	> 100 µM	> 100 µM	> 100 µM	> 100 µM	> 100 µM	> 100 µM	> 100 µM	> 100 µM	> 100 µM	> 100 µM	> 100 µM	> 100 µM			
COc1ccc(C2C(Cl)C(=O)N2NC(=O)c2ccc(NC(C)=O)cc2)cc1 (stereo unspecified)		> 100 µM	> 100 µM	> 100 µM	> 100 µM	> 100 µM	> 100 µM	> 100 µM	> 100 µM	> 100 µM	> 100 µM	> 100 µM	> 100 µM	> 100 µM			
O=c1c2ccccc2[nH]c(=S)n1-c1ccc(N=Nc2cccc3c(O)cccc23)cc1	> 100 µM		> 100 µM	> 100 µM	> 100 µM	> 100 µM	> 100 µM	> 100 µM	> 100 µM	> 100 µM	68 µM	> 100 µM	> 100 µM	> 100 µM	> 100 µM	> 100 µM	> 100 µM
O=C1CC2(C[C@@H]3CCCCCCCCC[C@@H](C3)C2)N1 (stereo partly specified)	34.6 µM	49.6 µM	36.3 µM	33.1 µM	30.8 µM	38.4 µM	25.4 µM	37.6 µM	20.6 µM	37.7 µM	30.3 µM	30.4 µM	29.3 µM	38.4 µM			
Cc1sc2nc3n(c(=O)c2c1C)N=CN(c1ccccc1)C3	> 100 µM		> 100 µM	> 100 µM	> 100 µM	> 100 µM	> 100 µM	> 100 µM	> 100 µM	> 100 µM	> 100 µM	46.5 µM	> 100 µM	> 100 µM	> 100 µM	> 100 µM	> 100 µM
CCCCc1c(O)nc(Nc2nc3ccccc3[nH]2)[nH]c1=O	> 100 µM		> 100 µM	> 100 µM	> 100 µM	> 100 µM	> 100 µM	> 100 µM	> 100 µM	> 100 µM	> 100 µM	> 100 µM	> 100 µM	> 100 µM	> 100 µM	> 100 µM	> 100 µM
